{"source": "patent US9610363B2", "about": "“Methods for inhibiting starvation of a cell” (PRESIDENT AND FELLOWS OF HARVARD COLLEGE, priority 2009, dated 2017)", "molecules": {"B1": {"name": "proinsulin (protein, UniProt P01326 25-110, looked up)", "pro-form": "FVKQHLCGSHLVEALYLVCGERGFFYTPMSRREVEDPQVAQLELGGGPGAGDLQTLALEVAQQKRGIVDQCCTSICSLYQLENYCN", "modifications": "pro-form"}}, "key": {"cones [1]": {"tested_on": "cones", "test": "Quantification of cone survival in PDE-β−/− mice (cone-lacZ staining of retinal flat mounts)", "assay_type": "in vivo", "conditions": "for cone survival after 4 weeks of treatment: PW7, insulin daily i.p. from P21, streptozotocin single i.p. injection at P21, vs uninjected control; for cone survival after 7 weeks of treatment: PW10, treatment from PW3, vs untreated", "method": "(§1) Rapamycin, Streptozotocin and Insulin treatments were performed as follows. Rapamycin was diluted to 10 mg/ml in ethanol. The stock was diluted to 0.015 mg/ml in drinking water over a period of 2 weeks. A single intraperitoneal injection of 150 μl (12 mg/ml in 0.1M citric acid, ph4.5) of Streptozotocin was injected at postnatal day (P) 21. Insulin was injected intraperitoneally daily starting at P21. The concentration was increased weekly such that the first week, 10 U/kg body weight, the second 15 U/kg, the third 20 U/kg and fourth 30 U/kg body weight, were injected. In the treatment that lasted 7 weeks 30 U/kg body weight were injected for the remaining 3 weeks. Blood glucose levels were measured by collecting a drop of blood from the tail directly onto a test strip from TrueTrack smart system (CVS pharmacy). Eye bleeds were avoided due to the fact that cell survival in the retina was being assayed.\nQuantification of cone survival was performed as follows. The colors of the bright light image were inverted and processed with Imaris software (Bitplane Inc) to calculate the percentage of blue surface area versus the total retinal surface area (see also FIG. 17). A minimum of 8 retinae per treatment, and for the control, were analyzed. P-values were calculated by the student's t-test."}, "p*-mTOR": {"tested_on": "p*-mTOR", "test": "Retinal explant culture, p*-mTOR staining", "assay_type": "cell-based, mice", "conditions": "wild type retinal explants, 4 hours culture, media with or without glucose", "method": "Retinal explant cultures: The retina was dissected free from other ocular tissues in DMEM, and then incubated in conditions according to the chart in FIG. 10a. Regular DMEM was at 4.5 g/L glucose, low glucose was at 1 g/L, leucine was added at 200 μM and FCS at 10%. Incubation was performed for 4 h and the retinae were fixed and processed for antibody staining as described below.\n(§2) Whole mount and section antibody staining were performed as previously (Punzo, C. & Cepko, C. L. (2008) Dev Dyn 237, 1034-42) described with the following modifications. Antibody staining for LAMP-2: Triton was replaced with 0.01% Saponin. Antibody staining for p*-mTOR and p*-S6: PBS was replaced by TBS in every step of the procedure. […] Time points analyzed for the rod and cone death kinetics (P: postnatal day; PW: postnatal week): PDE-β−/−: P10-P20 daily, PW3-10 weekly, PW 12, PW15, PW18, PW45; PDE-γ-KO: P10-P20 daily, PW3-PW10 weekly, PW15, PW25, PW45; Rho-KO: PW4-PW8 weekly, PW10, PW11, PW17, PW20, PW25, PW27, PW31, PW34, PW37, PW45, PW55, PW80; P23H: PW5, PW10, PW16, PW25, PW30, PW35, PW40, PW65, PW70, PW75, PW80, PW85."}, "HIF-1α": {"tested_on": "HIF-1α", "test": "Immunofluorescent staining for HIF-1α in cones of PDE-β−/− mice", "assay_type": "in vivo", "conditions": "PDE-β−/− mice treated for 4 weeks with insulin", "method": "as §1, with “Eye bleeds were avoided due to the fact that cell survival in the retina was being assayed.” left out\nas §2, with “modifications.” for “modifications. Antibody staining for LAMP-2: Triton was replaced with 0.01% Saponin. Antibody staining for p*-mTOR and p*-S6: PBS was replaced by TBS in every step of the procedure.”"}, "cones [2]": {"tested_on": "cones", "test": "AAV2/5 gluconeogenesis vector tested in vivo in the rd1 mutant mouse, cone survival and morphology"}, "[3]": {"test": "Behavioral assays (open field and step tests) in rd1 mutant mice", "assay_type": "in vivo, mouse", "conditions": "infected rd1 animals", "source_text": "FIG. 23 is a graph depicting the open field and step tests performed on the rd1 mutant mice in which the AAV vector was introduced.\nThis observation also confirms that outer segment shortening was due to insufficient glucose."}, "HEK 293 cells": {"tested_on": "HEK 293 cells", "test": "Expression of Fbp-1, Pck-1 and Pcx from the AAV vector (PCR, Western blot in HEK 293 cells)", "assay_type": "cell-based", "method": "FIGS. 22A and B depict the mRNA expression and protein expression of gluconeogenesis genes. […] Gapdh is used as a loading control and water is used as a negative control.\nTwo ways were used to supply cells with more glucose. One was to increase intracellular glucose levels by providing cones with the means to synthesize their own glucose. Glucose synthesis, called gluconeogenesis, is carried out primarily in the liver, and to a limited extent in kidney and muscle. One might consider that the enzymes required for glucose synthesis could be those that break down glucose, during the process of glycolysis. However, some of the steps in glycolysis are energy producing and thus to reverse them requires a different process. Three enzymes must be supplied to allow the glucose to be synthesized, utilizing pyruvate or lactate as a starting point, and utilizing ATP and GTP to go uphill energetically in the synthesis. The first energy requiring step is catalyzed by Pcx (Pcx: Pyruvate Carboxylase) and utilizes ATP. A subsequent energy requiring step is catalyzed by Pck1: Phosphoenolpyruvate carboxykinase) and requires GTP. […] The endogenous expression of Fbp1, PCk1, and Pcx and the expression Fbp1, PCk1, and Pcx in the AAV vector (“construct”) was analyzed by PCR analysis (FIG. 22A) and Western blot analysis (FIG. 22B)."}, "photoreceptor": {"tested_on": "photoreceptor", "conditions": "cited from earlier work"}}, "note": "Entries after “also recorded” stand apart in the source; their conditions may differ."}
{"molecule": "CN(N=O)C(=O)N[C@H]1C(O)O[C@H](CO)[C@@H](O)[C@@H]1O", "note": "(mixture of isomers) [streptozotocin]", "values": [{"measurement": "cone survival after 4 weeks of treatment", "setting": "cones [1]", "result": "decrease in cone survival"}, {"measurement": "cone survival after 7 weeks of treatment", "setting": "cones [1]", "result": "no significant difference in cone survival"}]}
{"molecule": "O=C[C@H](O)[C@@H](O)[C@H](O)[C@H](O)CO", "note": "[glucose]", "values": [{"measurement": "dorsal p*-mTOR in cones", "setting": "p*-mTOR", "result": "abolished in the absence of glucose; also recorded: only detected when glucose was present"}]}
{"molecule": "insulin", "values": [{"measurement": "cone survival after 4 weeks of treatment", "setting": "cones [1]", "result": "improved cone survival; also recorded: prolonged cone survival"}, {"measurement": "cone survival after 7 weeks of treatment", "setting": "cones [1]", "result": "did not show any significant improvement of cone survival; also recorded: no significant difference in cone survival"}, {"measurement": "upregulation of HIF-1α in cones", "setting": "HIF-1α", "result": "did not show the upregulation of HIF-1α; also recorded: prevented the upregulation of HIF-1α"}]}
{"molecule": "CMV promotor-Pcx-IRES-Fbp1-IRES-Pck1: AAV 2/5 virus carrying Pcx, Fbp1 and Pck1 on one transcript under the CMV promoter with IRES elements", "values": [{"measurement": "morphology of the cone outer segments", "setting": "cones [2]", "result": "remarkably similar to that of normal cones"}, {"measurement": "cone survival", "setting": "cones [2]; relative to controls", "result": "additional cone survival relative to controls"}, {"measurement": "vision in two behavioral assays", "setting": "[3]", "result": "functional vision"}, {"measurement": "mRNA expression of Fbp-1, Pck-1 and Pcx", "setting": "HEK 293 cells; PCR analysis, Gapdh loading control", "result": "expresses these genes"}, {"measurement": "protein expression of Fbp-1, Pck-1 and Pcx", "setting": "HEK 293 cells; Western blot, transfected HEK 293 cells vs retina and HEK 293 control samples", "result": "upregulated"}]}
{"molecule": "B1", "values": [{"measurement": "photoreceptor death", "setting": "photoreceptor; constitutive expression, rd10 mouse model of RP", "result": "delays photoreceptor death, both of rods and cones"}, {"measurement": "hyperglycemia", "setting": "photoreceptor; mice treated with proinsulin", "result": "did not develop hyperglycemia"}]}
